Experiment [1] concerns PC-9 cells (EGFR Ex19Del). Nature of the experiment: Potency Assay: pERK (SOS1 pERK IC50 Assay, AlphaLISA SureFire Ultra p-ERK1/2). The experiment is classed as cell-based. The note with it: Homo sapiens; PC-9 cells (EGFR Ex19Del), 1 hour incubation, AlphaLISA p-ERK1/2; read-out: SOS1 pERK IC50. An outline of the steps: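 PC-9 (EGFR Ex19Del) cells plated overnight, then treated 1 h at 37° C. with 10-point 3-fold dilutions (top 10 μM final) in duplicate. Lysate pERK1/2 measured by AlphaLISA SureFire Ultra; IC50 from 4-parameter sigmoidal fit.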
A general note: Alpha assays give light when donor and acceptor beads are brought close together.

Experiment [2] deals with T1, SOS1 catalytic domain (residues 564-1049) (Homo sapiens, UniProt Q07889).
T1 sequence (Q07889 564-1049): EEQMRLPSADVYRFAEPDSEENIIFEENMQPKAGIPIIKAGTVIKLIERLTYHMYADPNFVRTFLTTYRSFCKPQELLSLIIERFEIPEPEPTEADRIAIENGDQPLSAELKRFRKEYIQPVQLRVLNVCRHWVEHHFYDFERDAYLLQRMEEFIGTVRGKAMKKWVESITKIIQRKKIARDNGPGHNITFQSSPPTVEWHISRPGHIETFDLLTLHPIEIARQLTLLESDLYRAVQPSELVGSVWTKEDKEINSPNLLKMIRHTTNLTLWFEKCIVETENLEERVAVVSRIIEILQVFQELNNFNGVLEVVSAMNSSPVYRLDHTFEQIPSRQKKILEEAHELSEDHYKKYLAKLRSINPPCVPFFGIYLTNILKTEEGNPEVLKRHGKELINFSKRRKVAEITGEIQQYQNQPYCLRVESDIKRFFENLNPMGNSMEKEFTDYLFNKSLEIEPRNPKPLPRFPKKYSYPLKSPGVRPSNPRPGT
The experiment is described as follows: Mode of Action Assay: inhibition of SOS1 nucleotide exchange activity (SOS1 TR-FRET IC50 Assay). (In general: TR-FRET usually uses a lanthanide donor and a delayed reading to cut background.)

Experiment [3] deals with T1, SOS1 catalytic domain (residues 564-1049). The experiment is described as follows: Potency Assay: binding affinity to SOS1 using Surface Plasmon Resonance (SPR). Further details: SOS1 catalytic domain (residues 564-1049) immobilized on a sensor chip. The conditions noted are these: immobilized SOS1 catalytic domain (residues 564-1049), read-out: SOS1 SPR Equilibrium Kd. An outline of the steps: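 Avi-tagged SOS1 catalytic domain captured on streptavidin chip (~6000 RU) in 0.01 M HEPES, 0.15 M NaCl, 0.05% P20. Compound dilution series flowed at 50 μL/min for association, then buffer for dissociation, with double reference subtraction. Kd derived from end-of-association binding response plotted against concentration.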

The IC50 is the concentration that gives 50% inhibition. Usually Kd stands for the concentration at which binding is half-saturated. In the case of `C[C@@H](Nc1nc(Cl)nc2c1CN(C(=O)[C@@H]1COCCN1)C2)c1cccc(C(F)F)c1F` [Example 309], the IC50 in experiment [1] and in experiment [2] was less than 1000 nM in each case. In experiment [3], the Kd was less than 400 nM.
`Cc1nc2c(c(N[C@H](C)c3cc(N)cc(C(F)(F)F)c3)n1)CN(C(=O)C1CCOCC1)C2` [Example 119, N-[(1R)-1-[3-amino-5-(trifluoromethyl)phenyl]ethyl]-2-methyl-6-(oxane-4-carbonyl)-5H,6H,7H-pyrrolo[3,4-d]pyrimidin-4-amine]: the IC50 in experiment [1] is greater than 1000 nM; in experiment [2], less than 1000 nM. In experiment [3], the Kd was less than 400 nM.
In the same order, the values of `C[C@@H](Nc1nc(Cl)nc2c1CN(C(=O)C1CCNCC1(F)F)C2)c1cccc(C(F)F)c1F` (some centres unmarked) [Example 311] are less than 1000 nM, less than 1000 nM and less than 400 nM.
For `C[C@@H](Nc1nc(Cl)nc2c1CN(C(=O)N1CC3CC(C1)N3C)C2)c1cccc(C(F)F)c1F` [Example 420], the IC50 in experiment [1] and in experiment [2] was less than 1000 nM throughout. In addition, in experiment [3], the Kd was less than 400 nM.
For the compound `C[C@@H](Nc1nc(Cl)nc2c1CN(C(=O)C1(C)CCN(C3COC3)C1)C2)c1cccc(C(F)F)c1F` (some centres unmarked) [Example 341], the IC50 in experiment [1] and in experiment [2] was less than 1000 nM in each case. In addition, in experiment [3], the dissociation constant Kd is less than 400 nM.
Consider `C[C@@H](Nc1nc(Cl)nc2c1CN(C(=O)C1C3CNCC31)C2)c1cc(N)cc(C(F)(F)F)c1` (some centres unmarked) [Example 266], for which the IC50 is greater than 1000 nM in experiment [1] and less than 1000 nM in experiment [2]. Moreover, the Kd in experiment [3] is less than 400 nM.
For `C[C@@H](Nc1nc(Cl)nc2c1CN(C(=O)C1(F)CNC1)C2)c1cc(N)cc(C(F)(F)F)c1` [Example 263] the same measures were less than 1000 nM, less than 1000 nM and less than 400 nM.
For `C[C@@H](Nc1nc(Cl)nc2c1CN(C(=O)C1(C#N)CCN(C)CC1)C2)c1cccc(C(F)(F)F)c1` [Example 280] the same measures were less than 1000 nM, less than 1000 nM and less than 400 nM.
In the same order, the values of `C[C@@H](Nc1nc(Cl)nc2c1CN(C(=O)N1CCN(C)CC1)C2)c1cccc(C(F)F)c1F` [Example 430] are less than 1000 nM, less than 1000 nM and less than 400 nM.
For `CNc1nc2c(c(N[C@H](C)c3cc(N)cc(C(F)(F)F)c3)n1)CN(C(=O)N1CCOCC1)C2` [Example 125, N4-[(1R)-1-[3-amino-5-(trifluoro-methyl)phenyl]ethyl]-N2-methyl-6-(morpholine-4-carbonyl)-5H,6H,7H-pyrrolo[3,4-d]pyrimidine-2,4-diamine], the IC50 in experiment [1] and in experiment [2] was less than 1000 nM throughout. In addition, the Kd in experiment [3] is less than 400 nM.
Consider `C[C@@H](Nc1nc(Cl)nc2c1CN(C(=O)N1CCNC(=O)C1)C2)c1cccc(C(F)F)c1F` [Example 403], for which the IC50 in experiment [1] and in experiment [2] was less than 1000 nM throughout. Besides, the dissociation constant (Kd) in experiment [3] was less than 400 nM.
Consider `Cc1nc2c(c(N[C@H](C)c3cc(N)cc(C(F)(F)F)c3)n1)CN(C(=O)N1CCN(C)CC1)C2` [Example 351], for which, in experiment [1], the IC50 was less than 1000 nM. In experiment [3], the Kd is less than 400 nM.
Regarding `C[C@@H](Nc1nc(Cl)nc2c1CN(C1CCOCC1)CC2)c1cc(N)cc(C(F)(F)F)c1` [Example 22, N-[(1R)-1-[3-amino-5-(trifluoromethyl)phenyl]ethyl]-2-chloro-6-tetrahydropyran-4-yl-7,8-dihydro-5H-pyrido[4,3-d]pyrimidin-4-amine], the IC50 in experiment [1] is less than 1000 nM. In experiment [3], the Kd was less than 400 nM.
For `CNCc1ccccc1-c1ccc(C(C)Nc2nc(Cl)nc3c2CN(C(=O)N2CCOCC2)C3)s1` (centres unmarked) [Example 39, [2-chloro-4-[1-[5-[2-(methylaminomethyl)phenyl]-2-thienyl]ethylamino]-5,7-dihydropyrrolo[3,4-d]pyrimidin-6-yl]-morpholino-methanone] the same measures were less than 1000 nM and less than 400 nM.
As for `CCc1cc(N)cc(C(C)Nc2nc(Cl)nc3c2CN(C(=O)N2CCOCC2)C3)c1` (centres unmarked) [Example 41, [4-[1-(3-amino-5-ethyl-phenyl)ethylamino]-2-chloro-5,7-dihydropyrrolo[3,4-d]pyrimidin-6-yl]-morpholino-methanone], the IC50 in experiment [1] was less than 1000 nM. Moreover, the Kd in experiment [3] is less than 400 nM.
In the same order, the values of `COc1cncc(C(=O)N2CCc3nc(Cl)nc(N[C@H](C)c4cc(N)cc(C(F)(F)F)c4)c3C2)n1` [Example 237] are greater than 1000 nM and greater than 400 nM.
In the same order, the values of `C[C@@H](Nc1nc(Cl)nc2c1CN(c1ncccc1N1CCOCC1)CC2)c1cc(N)cc(C(F)(F)F)c1` [Example 186, (R)—N-(1-(3-amino-5-(trifluoromethyl)phenyl)ethyl)-2-chloro-6-(3-morpholinopyridin-2-yl)-5,6,7,8-tetrahydropyrido[4,3-d]pyrimidin-4-amine] are greater than 1000 nM and greater than 400 nM.
In the same order, the values of `CNCc1ccccc1-c1cccc(C(C)Nc2nc(Cl)nc3c2CN(C(=O)N2CCOCC2)C3)c1` (centres unmarked) [Example 32, [2-chloro-4-[1-[3-[2-(methylaminomethyl)phenyl]phenyl]ethylamino]-5,7-dihydropyrrolo[3,4-d]pyrimidin-6-yl]-morpholino-methanone] are less than 1000 nM and less than 400 nM.
As for `C[C@@H](Nc1nc(Cl)nc2c1CN(S(=O)(=O)C1CCNCC1)C2)c1cc(N)cc(C(F)(F)F)c1` [Example 187], the IC50 in experiment [1] was greater than 1000 nM. Besides, the Kd in experiment [3] is less than 400 nM.
Consider `COC[C@H]1CCCN1C(=O)N1Cc2nc(Cl)nc(N[C@H](C)c3cc(N)cc(C(F)(F)F)c3)c2C1` [Example 154], for which the IC50 in experiment [2] was less than 1000 nM. Besides, the Kd in experiment [3] was less than 400 nM.
Regarding `Cc1nc2c(c(N[C@H](C)c3cc(N)cc(C(F)(F)F)c3)n1)CN(C(=O)N1CC(O)C1)C2` [Example 352], the IC50 in experiment [1] was greater than 1000 nM. For the same compound, the Kd in experiment [3] is less than 400 nM.
In the same order, the values of `C[C@@H](Nc1nnc(Cl)c2c1CN(C(=O)N1CCOCC1)C2)c1cc(N)cc(C(F)(F)F)c1` [Example 35, [1-[[(1R)-1-[3-amino-5-(trifluoromethyl)phenyl]ethyl]amino]-4-chloro-5,7-dihydropyrrolo[3,4-d]pyridazin-6-yl]-morpholino-methanone] are greater than 1000 nM and greater than 400 nM.
For `C[C@@H](Nc1nc(Cl)nc2c1CN(C(=O)c1ccc3c(n1)OCCO3)C2)c1cc(N)cc(C(F)(F)F)c1` [Example 80], the IC50 in experiment [2] is greater than 1000 nM. Moreover, the Kd in experiment [3] is greater than 400 nM.
In the same order, the values of `O=C(N1CCOCC1)N1Cc2nc(Cl)nc(N[C@H](CO)c3cccc(C(F)(F)F)c3)c2C1` [Example 174] are greater than 1000 nM and greater than 400 nM.
In experiment [2], `C[C@@H](Nc1nc(Cl)nc2c1CN(C(=O)N1CCc3cccnc31)C2)c1cccc(C(F)(F)F)c1` [Example 369] yielded an IC50 of less than 1000 nM. Moreover, the Kd in experiment [3] was less than 400 nM.
For `COc1cncc(C(=O)N2Cc3nc(Cl)nc(N[C@H](C)c4cc(N)cc(C(F)(F)F)c4)c3C2)n1` [Example 69] the same measures were greater than 1000 nM and greater than 400 nM.
In the same order, the values of `C[C@@H](Nc1nc(Cl)nc2c1CN(S(=O)(=O)N1CCCC1)CC2)c1cc(N)cc(C(F)(F)F)c1` [Example 182] are less than 1000 nM and less than 400 nM.
For `C[C@@H](Nc1nc(Cl)nc2c1CN(C(=O)c1cc3c(cn1)OCCO3)C2)c1cc(N)cc(C(F)(F)F)c1` [Example 175] the same measures were greater than 1000 nM and greater than 400 nM.
In experiment [2], `C[C@@H](Nc1nc(Cl)nc2c1CN(C(=O)N1CCNc3ncncc31)C2)c1cccc(C(F)F)c1F` [Example 427] came in with an IC50 of less than 1000 nM. Besides, the Kd in experiment [3] was less than 400 nM.
For `Cc1nc2c(c(N[C@H](C)c3cc(N)cc(C(F)(F)F)c3)n1)CN(C)C2` [Example 43] the same measures were greater than 1000 nM and greater than 400 nM.
In the same order, the values of `C[C@@H](Nc1nc(CF)nc2c1CN(C(=O)N1CCOCC1)C2)c1cccc(C(F)F)c1F` [Example 540, N-[(1R)-1-[3-(difluoromethyl)-2-fluorophenyl]ethyl]-2-(fluoromethyl)-6-(morpholine-4-carbonyl)-5H,6H,7H-pyrrolo[3,4-d]pyrimidin-4-amine] are less than 1000 nM and less than 400 nM.
The compound `C[C@@H](Nc1nc(Cl)nc2c1CN(C(=O)C1CC3CCC(C1)O3)C2)c1cc(N)cc(C(F)(F)F)c1` (some centres unmarked) [Example 81] came in with an IC50 in experiment [2] of less than 1000 nM. Further, the Kd in experiment [3] is less than 400 nM.
For `C[C@@H](Nc1nc(Cl)nc2c1CN(C(=O)N1CCC(C)(O)CC1)C2)c1cc(N)cc(C(F)(F)F)c1` [Example 162] the same measures were less than 1000 nM and less than 400 nM.

For the origin of these results see patent US20230096028A1, “BICYCLIC HETEROCYCLYL COMPOUNDS AND USES THEREOF” (Revolution Medicines, Inc., priority 2019, published 2023).
